In patent publication US6414222B1, “Gene combinations for herbicide tolerance in corn” (Regents of the University of Minnesota, priority 1993, dated 2002):
Where two headings read alike, the source gives them in different places.

Assays:
[1] = test system: control cell line 2167-9/2160-154; assay: Callus growth on herbicide medium, control line; assay type: cell-based, maize; details: for IC50: read-out: Herbicide concentration inhibiting growth 50%
Procedure: A selection protocol to identify and isolate herbicide-tolerant maize cells was developed to minimize the adverse effects of high herbicide concentrations on somatic embryo development and plant regeneration capacity. The procedure involved exposing tissue to gradually increasing concentrations of herbicide beginning with a sethoxydim concentration representing 1/20th of lethal dose and doubling the herbicide concentration at approximately two-week intervals until the lethal dose (10 μM sethoxydim) was reached. In this way, the herbicide was allowed to take effect slowly with continuous selection pressure, thus permitting herbicide-tolerant cells to accumulate over time while not affecting the potential for plant regeneration.
Approximately 100 grams of vigorously growing, regenerable, friable, embryogenic maize callus tissue established from an F1 immature embryo resulting from the cross A188×B73 were transferred to agar-solidified maintenance medium (Armstrong and Green, Planta, 164, 207 (1985)) in petri plates containing 0.5 μM sethoxydim (BASF) (Parsippany, N.J.). This callus line was designated 2167-9/2160-154. Forty plates were prepared and five clumps of callus tissue weighing about 0.5 grams each were placed on each plate. The 0.5 μM sethoxydim concentration was chosen from growth inhibition studies to provide less than 10-20% growth inhibition during the first two weeks of herbicide exposure. After 14 days, 0.25-0.5 gram pieces of tissue showing vigorous growth rate and retention of embryogenic morphology (i.e., presence of somatic embryos) were subcultured on fresh medium containing 1.0 μM sethoxydim. Eighty plates containing five pieces of tissue per plate were prepared. For each subsequent transfer, all callus tissue showing growth and somatic embryo forming ability was placed on fresh media containing a two-fold increased sethoxydim concentration. Therefore, callus was transferred at two-week intervals to petri plates containing 0.5, 1.0, 2.0, 5.0 and 10.0 μM sethoxydim. During the course of the selection process, the total number of lines decreased as the herbicide-mediated growth inhibition became more intense. […] These lines were designated 2167-9/2160-154 S-1 and 2167-9/2160-154 S-2.
Tolerant cell line 2167-9/2160-154 S-2 (“S-2”) was characterized to evaluate: (1) the magnitude of sethoxydim tolerance; (2) cross-tolerance of haloxyfop; and (3) the biochemical basis for the tolerance. Callus tissue from S-2 that had been maintained on 10 μM sethoxydim was transferred to media containing up to 100 μM sethoxydim. One-half gram of S-2 tissue was plated on a 7 cm filter paper as a lawn overlaying 50 ml agar-solidified culture medium containing 0, 0.5, 1.0, 2.0, 5.0, 10.0, 50.0 and 100 μM sethoxydim, and cultured for two weeks. […]

[2] = test system: cell line 2167-9/2160-154 H-1; assay: Callus herbicide tolerance, line H-1; assay type: cell-based, maize; details: cell line H-1
Procedure: Tolerant cell line 2167-9/2160-154 S-2 (“S-2”) was characterized to evaluate: (1) the magnitude of sethoxydim tolerance; (2) cross-tolerance of haloxyfop; and (3) the biochemical basis for the tolerance. Callus tissue from S-2 that had been maintained on 10 μM sethoxydim was transferred to media containing up to 100 μM sethoxydim. One-half gram of S-2 tissue was plated on a 7 cm filter paper as a lawn overlaying 50 ml agar-solidified culture medium containing 0, 0.5, 1.0, 2.0, 5.0, 10.0, 50.0 and 100 μM sethoxydim, and cultured for two weeks. Control cell line 2167-9/2160-154 was plated similarly on medium containing the same levels of sethoxydim. The control cell line growth after two weeks was inhibited 50% at 1 μM sethoxydim.
The tolerant callus cultures were characterized to determine the magnitude of sethoxydim and haloxyfop tolerance. Callus tissue from these lines was evaluated in experiments as described above in the characterization of line 2167-9/2160-154 S-2.

[3] = test system: ACCase of cell line 2167-9/2160-154 S-1; assay: Herbicide inhibition of ACCase, line S-1; assay type: biochemical, maize; details: cell line S-1
Procedure: (§1) Maize chloroplasts, isolated as described above, were suspended in buffer C (0.1 M Tricine-KOH, pH 8.0; 0.3 M glycerol, and 1 mM DTT) and homogenized in a glass tissue homogenizer. The disrupted chloroplast fraction was centrifuged at 16,000 g for 15 minutes. The supernatant was desalted on a Sephadex G-25 column (1.5×5 cm equilibrated with 0.1 M Tricine-KOH, pH 8.0; and 0.3 M glycerol) and assayed directly. ACCase activity (B. J. Nikolau et al., Arch. Biochem. Biophys., 211, 605-612 (1981)) was assayed at 30° C. in a 0.2 ml volume which contained 1 mM ATP, 3 mM acetyl coenzyme A, 2.5 mM MgCl2, 50 mM KCl, 0.5 mM DTT, and 15 mM [^14C]NaHCO3 (0.17 mCi/mmol). Reactions were initiated by addition of acetyl coenzyme A and stopped by addition of 25 μl of 12 N HCl. Product formation was determined by the radioactivity found in an acid stable fraction by liquid scintillation spectrometry. Enzyme activity was linear for 15 minutes.
(§2) Acetyl Coenzyme A Carboxylase (ACCase) was extracted from cell lines S-1, H-1 and H-2 and assayed as described in detail for maize cell line S-2, above.

[4] = test system: ACCase of cell line 2167-9/2160-154 H-1; assay: Herbicide inhibition of ACCase, line H-1; assay type: biochemical, maize; details: cell line H-1
Procedure: as §1, §2

[5] = test system: Heterozygous tolerant Inbred × S2 seedlings; assay: Foliar herbicide application, lethal rate; assay type: in vivo, maize (Zea mays L.); details: Heterozygous tolerant Inbred × S2, average of A188- and A619-derived F1 families
Procedure: (§3) Foliar applications of the herbicides were made to greenhouse- or field-grown seedlings at the three- to five-leaf stage. Herbicides were applied in a spray volume of 187 l/ha that includes 2.3 l/ha crop oil concentrate to enhance uptake. Sethoxydim and haloxyfop were applied using commercial formulations (Poast from BASF Corp and Verdict from Dow Elanco, respectively). Visual observations were recorded 14-21 days after herbicide treatments.
(§4) For each mutant, two homozygous tolerant R4 families were derived from two different regenerated plants and two heterozygous F1 families were obtained from crosses of R3 homozygous tolerant lines with the susceptible inbreds A188 and A619. Sethoxydim and haloxyfop each were applied at rates ranging from 0.0034 to 7.0 kg/ha. For each genotype a five-rate doubling series was used to determine herbicide lethality. Because of the large differences between wildtype and mutants in herbicide susceptibility, the ranges of herbicide application rates were varied. Two five plant/pot replicates of each family were evaluated for each rate. Herbicide injury symptoms were scored visually 21 days after herbicide treatment. The lethal rate was considered to be the lowest application rate resulting in death of all seedlings in the four replications of each homozygous tolerant genotype or in the eight replications of the heterozygous combinations.

[6] = test system: Homozygous tolerant S2 seedlings; assay: Foliar herbicide application, lethal rate; assay type: in vivo, maize (Zea mays L.); details: for Lethal rates: Homozygous tolerant S2, average of two families, scored 21 days after treatment
Procedure: as §3, §4

[7] = test system: Homozygous tolerant S3 seedlings; assay: Foliar herbicide application, lethal rate; assay type: in vivo, maize (Zea mays L.); details: for Lethal rates: Homozygous tolerant S3, average of two families, scored 21 days after treatment
Procedure: as §3, §4

[8] = test system: Wildtype (A188 and A619) seedlings; assay: Foliar herbicide application, lethal rate; assay type: in vivo, maize (Zea mays L.); details: average response of A188 and A619, scored 21 days after treatment
Procedure: as §3, §4

[9] = test system: acetyl-coenzyme A carboxylase (ACCase) (EC 6.4.1.2) in maize chloroplasts; assay: Acetyl-Coenzyme A Carboxylase (ACCase) activity of maize chloroplasts; assay type: biochemical
Procedure: as §1

SMILES	IC50 ([1]; Zea mays, 336 h, control callus, growth after two weeks) [nM]	Fold increase in herbicide concentration that results in a 50% reduction in growth vs unselected control cell line [2] [fold]	Fold increase in herbicide concentration that results in a 50% reduction in growth vs unselected control cell line ([2]; listed as haloxyfop) [fold]	Fold increase in herbicide concentration that inhibits ACCase activity by 50% vs unselected parent cell line [3] [fold]	Fold increase in herbicide concentration that inhibits ACCase activity by 50% vs unselected parent cell line ([3]; listed as haloxyfop)	Fold increase in herbicide concentration that inhibits ACCase activity by 50% vs unselected parent cell line [4] [fold]	Fold increase in herbicide concentration that inhibits ACCase activity by 50% vs unselected parent cell line ([4]; listed as haloxyfop)	Lethal rates [5]	Lethal rates [6] [kg/ha]	Lethal rates [7] [kg/ha]	Lethal rates [8] [kg/ha]	Effect on ACCase in maize chloroplasts [9]	inhibition at 0.5 µM ([1]; Zea mays, 336 h, read-out: Growth inhibition) [%]	IC50 ([1]; Zea mays, 336 h) [nM]	Lethal dose for callus tissue ([1]; tissue culture selection protocol) [µM]	Fold increase in herbicide concentration that results in a 50% reduction in growth vs unselected control cell line ([2]; listed as sethoxydim)	Fold increase in herbicide concentration that inhibits ACCase activity by 50% vs unselected parent cell line ([3]; listed as sethoxydim)	Fold increase over the lethal rate for wildtype plants ([6]; homozygous S2 seedlings, not killed at 7 kg/ha) [fold]	Fold increase over the lethal rate for wildtype plants ([7]; homozygous S3 seedlings, not killed at 7 kg/ha) [fold]
CC(Oc1ccc(Oc2ncc(C(F)(F)F)cc2Cl)cc1)C(=O)O (stereo not drawn) [Haloxyfop, 2-[4-[[3-chloro-5-(trifluoromethyl)-2-pyridinyl]oxy]phenoxy]-propanoic acid]	20	61	~60	3	more tolerant	7	more tolerant	0.11 kg/ha	0.22	0.22	0.014	inhibit	–	–	–	–	–	–	–
CCCC(=NOCC)C1=C(O)CC(CC(C)SCC)CC1=O (stereo not drawn) [Sethoxydim, 2-[1-(ethoxyimino)-butyl]-5-[2-(ethylthio)propyl]-3-hydroxy-2-cyclohexen-1-one]	–	0	–	4	–	0	–	≧1.8 kg/ha	>7.0	>7.0	0.055	inhibit	10 to 20	1000	10	Neither haloxyfop selected line showed a significant degree of sethoxydim tolerance	more tolerant	≥ 127	≥ 127
